Assay results published in patent publication US20240226228A1, “ANTIMICROBIAL PEPTOID HAVING IMPROVED SELECTIVITY AND ANTIMICROBIAL COMPOSITION COMPRISING SAME” (priority 2021, published 2024).
Values after ≈ are worked out from the molar mass of the structure shown. Like-named read-outs stand apart in the source and are kept apart here. Where a SMILES comes first, the peptide text is derived from it. [ ]: non-standard residue; d: D form. Gly(N(CH2)2(3-indolyl)) = O=C(O)CNCCc1c[nH]c2ccccc12; Gly(N-CH2CH2-imidazol-4-yl) = O=C(O)CNCCc1c[nH]cn1; Nspe = C[C@H](NCC(=O)O)c1ccccc1; Nphe = O=C(O)CNCc1ccccc1; Nlys = NCCCCNCC(=O)O

Columns and labels:
S. aureus ATCC 25923 = system: S. aureus ATCC 25923
Procedure, shortened: (§1)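 Cation-adjusted MHB2 cultures (18 h, subcultured 4 h) adjusted to 2×10^5–5×10^5 CFU/mL in medium with 0.02% BSA and 0.001% acetic acid.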

E. coli ATCC25922 = system: E. coli ATCC25922
Procedure, shortened: as §1

red blood cells = assay: Hemolysis assay; type: cell-based, Sprague-Dawley mouse
Procedure, shortened: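 Peptoid is mixed with 10% (v/v) PBS-washed erythrocytes (male Sprague-Dawley […], 13 weeks) and held 1 h at 37 °C. Hemolysis is calculated from 540 nm absorbance of the supernatant, with PBS as 0% and Triton X-100 as 100%.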

[1] = Tables 11-13, 24 hours at 37° C., maximum concentration 25 μM
[2] = Table 18, TFA salt vs counter ion-substituted (HCl, AcOH) peptoids

MIC S. aureus ATCC 25923 (S. aureus ATCC 25923; ATCC 25923) [µM]	MIC E. coli ATCC25922 (E. coli ATCC25922; ATCC25922) [µM]	SMILES	HD10 (red blood cells)	HD50 (red blood cells)	Hmax (100 μM) (red blood cells)	MIC S. aureus ATCC 25923 (S. aureus ATCC 25923; [1]) [µM]	MIC E. coli ATCC25922 (E. coli ATCC25922; [1]) [µM]	HC10 (red blood cells)	HC50 (red blood cells)	MIC S. aureus ATCC 25923 (S. aureus ATCC 25923; [2]) [µM]	MIC E. coli ATCC25922 (E. coli ATCC25922; [2]) [µM]
6.3 (≈ 11.9 µg/mL)	6.3 (≈ 11.9 µg/mL)	C[C@@H](c1ccccc1)N(CC(N)=O)C(=O)CN(CCCCN)C(=O)CN(CCCCN)C(=O)CN(C(=O)CN(C(=O)CN(CCCCN)C(=O)CN(C(=O)CN(C(=O)CN(CCCCN)C(=O)CN(CCc1c[nH]c2ccccc12)C(=O)CN(CCc1c[nH]c2ccccc12)C(=O)CNCCc1c[nH]cn1)[C@@H](C)c1ccccc1)[C@@H](C)c1ccccc1)[C@@H](C)c1ccccc1)[C@@H](C)c1ccccc1 [Peptoid 72] (H-[Gly(N-CH2CH2-imidazol-4-yl)][Gly(N(CH2)2(3-indolyl))][Gly(N(CH2)2(3-indolyl))][Nlys][Nspe][Nspe][Nlys][Nspe][Nspe][Nlys][Nlys][Nspe]-NH2)	88.9	> 100.0	11.8 ± 1.1	–	–	–	–	–	–
–	–	C[C@@H](c1ccccc1)N(CC(=O)N(CCCCN)CC(=O)N(CC(=O)N(CC(=O)N(CCCCN)CC(=O)N(CCc1c[nH]c2ccccc12)CC(=O)N(CCc1c[nH]c2ccccc12)CC(N)=O)[C@@H](C)c1ccccc1)[C@@H](C)c1ccccc1)C(=O)CN(C(=O)CN(CCCCN)C(=O)CN(CCc1c[nH]c2ccccc12)C(=O)CN(CCc1c[nH]c2ccccc12)C(=O)CNCCCCN)[C@@H](C)c1ccccc1 [Peptoid 18] (H-[Nlys][Gly(N(CH2)2(3-indolyl))][Gly(N(CH2)2(3-indolyl))][Nlys][Nspe][Nspe][Nlys][Nspe][Nspe][Nlys][Gly(N(CH2)2(3-indolyl))][Gly(N(CH2)2(3-indolyl))]-NH2)	–	–	103.5 ± 4.3%	3.1 (≈ 6.12 µg/mL)	12.5 (≈ 24.7 µg/mL)	14.3 µM	37.8 µM	–	–
–	–	C[C@@H](c1ccccc1)N(CC(=O)N(CCCCN)CC(=O)N(CC(=O)N(CC(=O)N(CCCCN)CC(=O)N(CC(=O)N(CC(=O)N(CCCCN)CC(=O)N(CCc1c[nH]c2ccccc12)CC(=O)N(CCc1c[nH]c2ccccc12)CC(N)=O)[C@@H](C)c1ccccc1)[C@@H](C)c1ccccc1)[C@@H](C)c1ccccc1)[C@@H](C)c1ccccc1)C(=O)CN(CCCCN)C(=O)CNCCCCN [Peptoid 31] (H-[Nlys][Nlys][Nspe][Nlys][Nspe][Nspe][Nlys][Nspe][Nspe][Nlys][Gly(N(CH2)2(3-indolyl))][Gly(N(CH2)2(3-indolyl))]-NH2)	–	–	18.4 ± 5.0%	3.1 (≈ 5.78 µg/mL)	6.3 (≈ 11.7 µg/mL)	59.0 µM	> 100 µM	–	–
–	–	C[C@@H](c1ccccc1)N(CC(N)=O)C(=O)CN(CCCCN)C(=O)CN(CCCCN)C(=O)CN(C(=O)CN(C(=O)CN(CCCCN)C(=O)CN(CCc1c[nH]c2ccccc12)C(=O)CN(C(=O)CN(CCCCN)C(=O)CN(C(=O)CN(C(=O)CNCCCCN)[C@@H](C)c1ccccc1)[C@@H](C)c1ccccc1)[C@@H](C)c1ccccc1)[C@@H](C)c1ccccc1)[C@@H](C)c1ccccc1 [Peptoid 24]	–	–	1.5 ± 0.0%	6.3 (≈ 11.5 µg/mL)	>25	>100/>100 μM	>100/>100 μM	–	–
6.3 (≈ 11.9 µg/mL)	6.3 (≈ 11.9 µg/mL)	C[C@@H](c1ccccc1)N(CC(=O)N(CCCCN)CC(=O)N(CCc1c[nH]c2ccccc12)CC(=O)N(CCc1c[nH]c2ccccc12)CC(N)=O)C(=O)CN(CCCCN)C(=O)CN(CCc1c[nH]cn1)C(=O)CN(C(=O)CN(C(=O)CN(CCCCN)C(=O)CN(C(=O)CN(C(=O)CNCCCCN)[C@@H](C)c1ccccc1)[C@@H](C)c1ccccc1)[C@@H](C)c1ccccc1)[C@@H](C)c1ccccc1 [Peptoid 79] (H-[Nlys][Nspe][Nspe][Nlys][Nspe][Nspe][Gly(N-CH2CH2-imidazol-4-yl)][Nlys][Nspe][Nlys][Gly(N(CH2)2(3-indolyl))][Gly(N(CH2)2(3-indolyl))]-NH2)	>100.0/>100.0	>100.0/>100.0	8.5 ± 0.6	–	–	–	–	–	–
–	–	C[C@@H](c1ccccc1)N(CC(N)=O)C(=O)CN(C(=O)CN(CCCCN)C(=O)CN(CCc1c[nH]c2ccccc12)C(=O)CN(CCc1c[nH]c2ccccc12)C(=O)CN(CCCCN)C(=O)CN(CCc1c[nH]c2ccccc12)C(=O)CN(CCc1c[nH]c2ccccc12)C(=O)CN(CCCCN)C(=O)CN(C(=O)CN(C(=O)CNCCCCN)[C@@H](C)c1ccccc1)[C@@H](C)c1ccccc1)[C@@H](C)c1ccccc1 [Peptoid 20]	–	–	106.7 ± 3.5%	1.6 (≈ 3.16 µg/mL)	6.3 (≈ 12.4 µg/mL)	8.2 µM	33.9 µM	–	–
3.1 (≈ 5.85 µg/mL)	6.3 (≈ 11.9 µg/mL)	C[C@@H](c1ccccc1)N(CC(N)=O)C(=O)CN(CCCCN)C(=O)CN(CCCCN)C(=O)CN(C(=O)CN(C(=O)CN(CCCCN)C(=O)CN(C(=O)CN(C(=O)CN(CCc1c[nH]cn1)C(=O)CN(CCc1c[nH]c2ccccc12)C(=O)CN(CCc1c[nH]c2ccccc12)C(=O)CNCCCCN)[C@@H](C)c1ccccc1)[C@@H](C)c1ccccc1)[C@@H](C)c1ccccc1)[C@@H](C)c1ccccc1 [Peptoid 73] (H-[Nlys][Gly(N(CH2)2(3-indolyl))][Gly(N(CH2)2(3-indolyl))][Gly(N-CH2CH2-imidazol-4-yl)][Nspe][Nspe][Nlys][Nspe][Nspe][Nlys][Nlys][Nspe]-NH2)	>100.0/>100.0	>100.0/>100.0	10.0 ± 0.3	–	–	–	–	–	–
–	–	C[C@@H](c1ccccc1)N(CC(=O)N(CCCCN)CC(=O)N(CC(=O)N(CC(=O)N(CCCCN)CC(=O)N(CC(=O)N(CC(=O)N(CCCCN)CC(N)=O)[C@@H](C)c1ccccc1)[C@@H](C)c1ccccc1)[C@@H](C)c1ccccc1)[C@@H](C)c1ccccc1)C(=O)CN(C(=O)CN(CCCCN)C(=O)CN(CCc1c[nH]c2ccccc12)C(=O)CNCCc1c[nH]c2ccccc12)[C@@H](C)c1ccccc1 [Peptoid 37-2] (H-[Gly(N(CH2)2(3-indolyl))][Gly(N(CH2)2(3-indolyl))][Nlys][Nspe][Nspe][Nlys][Nspe][Nspe][Nlys][Nspe][Nspe][Nlys]-NH2)	–	–	98.9 ± 8.0%	–	–	12.5 µM	26.0 µM	1.6	6.3
–	–	C[C@@H](c1ccccc1)N(CC(N)=O)C(=O)CN(C(=O)CN(CCCCN)C(=O)CN(C(=O)CN(CCCCN)C(=O)CN(CCCCN)C(=O)CN(CCc1c[nH]c2ccccc12)C(=O)CN(C(=O)CN(CCCCN)C(=O)CN(C(=O)CN(C(=O)CNCCCCN)[C@@H](C)c1ccccc1)[C@@H](C)c1ccccc1)[C@@H](C)c1ccccc1)[C@@H](C)c1ccccc1)[C@@H](C)c1ccccc1 [Peptoid 25]	–	–	2.7 ± 0.4%	3.1 (≈ 5.66 µg/mL)	>25	>100/>100 μM	>100/>100 μM	–	–
–	–	C[C@@H](c1ccccc1)N(CC(=O)N(CCc1c[nH]c2ccccc12)CC(=O)N(CCCCN)CC(=O)N(CC(=O)N(CCc1c[nH]c2ccccc12)CC(=O)N(CCCCN)CC(=O)N(CC(=O)N(CCc1c[nH]c2ccccc12)CC(=O)N(CCCCN)CC(=O)N(CC(=O)N(CCc1c[nH]c2ccccc12)CC(N)=O)[C@@H](C)c1ccccc1)[C@@H](C)c1ccccc1)[C@@H](C)c1ccccc1)C(=O)CNCCCCN [Peptoid 22] (H-[Nlys][Nspe][Gly(N(CH2)2(3-indolyl))][Nlys][Nspe][Gly(N(CH2)2(3-indolyl))][Nlys][Nspe][Gly(N(CH2)2(3-indolyl))][Nlys][Nspe][Gly(N(CH2)2(3-indolyl))]-NH2)	–	–	108.6 ± 1.1%	1.6 (≈ 3.16 µg/mL)	12.5 (≈ 24.7 µg/mL)	6.9 µM	19.4 µM	–	–
–	–	C[C@@H](c1ccccc1)N(CC(N)=O)C(=O)CN(C(=O)CN(CCCCN)C(=O)CN(C(=O)CN(C(=O)CN(CCCCN)C(=O)CN(CCc1c[nH]c2ccccc12)C(=O)CN(C(=O)CN(CCCCN)C(=O)CN(C(=O)CN(C(=O)CNCCCCN)[C@@H](C)c1ccccc1)[C@@H](C)c1ccccc1)[C@@H](C)c1ccccc1)[C@@H](C)c1ccccc1)[C@@H](C)c1ccccc1)[C@@H](C)c1ccccc1 [Peptoid 9]	–	–	106.4 ± 0.6%	1.6 (≈ 2.97 µg/mL)	3.1 (≈ 5.76 µg/mL)	10.6 µM	31.9 µM	–	–
6.3 (≈ 11.9 µg/mL)	6.3 (≈ 11.9 µg/mL)	C[C@@H](c1ccccc1)N(CC(N)=O)C(=O)CN(CCc1c[nH]cn1)C(=O)CN(CCCCN)C(=O)CN(C(=O)CN(C(=O)CN(CCCCN)C(=O)CN(C(=O)CN(C(=O)CN(CCCCN)C(=O)CN(CCc1c[nH]c2ccccc12)C(=O)CN(CCc1c[nH]c2ccccc12)C(=O)CNCCCCN)[C@@H](C)c1ccccc1)[C@@H](C)c1ccccc1)[C@@H](C)c1ccccc1)[C@@H](C)c1ccccc1 [Peptoid 76] (H-[Nlys][Gly(N(CH2)2(3-indolyl))][Gly(N(CH2)2(3-indolyl))][Nlys][Nspe][Nspe][Nlys][Nspe][Nspe][Nlys][Gly(N-CH2CH2-imidazol-4-yl)][Nspe]-NH2)	>100.0/>100.0	>100.0/>100.0	10.1 ± 0.7	–	–	–	–	–	–
–	–	C[C@@H](c1ccccc1)N(CC(=O)N(CCCCN)CC(=O)N(CCc1c[nH]c2ccccc12)CC(=O)N(CCc1c[nH]c2ccccc12)CC(N)=O)C(=O)CN(CCCCN)C(=O)CN(CCCCN)C(=O)CN(C(=O)CN(C(=O)CN(CCCCN)C(=O)CN(Cc1ccccc1)C(=O)CN(Cc1ccccc1)C(=O)CNCCCCN)[C@@H](C)c1ccccc1)[C@@H](C)c1ccccc1 [Peptoid 41] (H-[Nlys][Nphe][Nphe][Nlys][Nspe][Nspe][Nlys][Nlys][Nspe][Nlys][Gly(N(CH2)2(3-indolyl))][Gly(N(CH2)2(3-indolyl))]-NH2)	–	–	7.1 ± 0.1%	6.3 (≈ 11.6 µg/mL)	25 (≈ 45.9 µg/mL)	>100/>100 μM	>100/>100 μM	–	–
